From US12059404B2, “Mesembrenol and/or mesembranol for prophylaxis and treatment of patients suffering from epilepsy and associated diseases” (HG&H Pharmaceuticals (Pty) Ltd, priority 2017, dated 2024)

Tests used:
[1] = tested on: pyramidal cell activity in hippocampus slices; experiment: In vitro hippocampus slice population spike in presence of isolated alkaloids; assay type: cell-based, rat; conditions: for attenuation of population spike amplitude, single shock stimuli / attenuation of population spike amplitude, theta burst stimuli: two concentrations in the nanomolar range; for attenuation of population spike amplitude, single shock stimuli: FIG. 5; for attenuation of population spike amplitude, theta burst stimuli: FIG. 6
Description: Electric stimulation of Schaffer Collaterals leads to release of glutamate resulting in excitation of the postsynaptic pyramidal cells. The result of the electric stimulation can be recorded as so-called population spike (pop-spike). The amplitude of the resulting population spike represents the number of recruited pyramidal cells. The model of hippocampal pyramidal cell activity reflects the effects of physiological interventions by an increase or decrease of the amplitude of the population spike.
Hippocampus slices were obtained from 19 adult male Sprague-Dawlay rats (Charles River Wiga, Sulzbach, Germany). Rats were kept under a reversed day/night cycle for 2 weeks prior to the start of the experiments to allow recording of in vitro activity from slices during the active phase of their circadian rhythm (Dimpfel, W., Dalhoff, B., Hofmann, W., Schlüter, G. (1994) Electrically evoked potentials in the rat hippocampus slice in the presence of aminophylline alone and in combination with quinolones (European Neuropsychopharmacology, 4, 151-156).
Preparation of the slices was performed exactly as reported earlier (Dimpfel, W. and Hoffmann, J. A. (2011) Effects of rasagiline, its metabolite aminoindan and selegiline on glutamate receptor mediated signalling in the rat hippocampus slice in vitro (BMC Pharmacology, 11, 2)). Animals were exsanguinated under ether anaesthesia; the brain was removed in total and the hippocampal formation was isolated under microstereoscopic sight. The midsection of the hippocampus was fixed to the table of a vibrating microtome (Rhema Labortechnik, Hofheim, Germany) using a cyanoacrylate adhesive, submerged in chilled bicarbonate-buffered saline (artificial cerebrospinal fluid (ACSF): NaCl: 124 mM, KCl: 5 mM, CaCl2: 2 mM, MgSO4: 2 mM, NaHCO3: 26 mM, glucose: 10 mM, and cut into slices of 400μ thickness. All slices were pre-incubated for at least 1 h in Carbogen saturated ACSF (pH 7.4) in a pre-chamber before use (Dimpfel, W., Spüler, M., Dalhoff, A., Hoffmann, W., Schlüter, G. (1991) Hippocampal activity in the presence of quinolones and fenbufen in-vitro (Antimicrobial Agents and Chemotherapy, 35, 1142-1146).
During the experiment the slices were held and treated in a special superfusion chamber (List Electronics, Darmstadt, Germany) according to (Haas, H L., Schaerer, B., Vosmansky, M. (1979). A simple perfusion chamber for the study of nervous tissue slices in vitro (J Neurosci Methods, 1, 323-5), at 35° C. (Schiff, S J., Somjen, G G. (1985) The Effects of Temperature on Synaptic Transmission in Hippocampal Tissue Slices (Brain Research, 345, 279-284)). The preparation was superfused with ACSF at 180-230 ml/h. Electric stimulation (200 μA constant current pulses of 200 μs pulse width) of the Schaffer Collaterals within the […] area and recording of extracellular field potentials from the pyramidal cell layer of CA1 (Dimpfel, W., Spüler, M., Dalhoff, A., Hoffmann, W., Schlüter, G. (1991) Hippocampal activity in the presence of quinolones and fenbufen in-vitro (Antimicrobial Agents and Chemotherapy, 35, 1142-1146).
Measurements were performed at 10 min intervals to avoid potentiation mechanisms. Four stimulations—each 20 seconds apart—were averaged for each time point. After obtaining three stable responses to single stimuli (SS) long-term potentiation was induced by applying a theta burst type pattern (TBS). […]

[2] = tested on: AMPA mediated transmission; experiment: In vitro hippocampus slice population spike with Fluorowillardine alone or together with alkaloids; assay type: cell-based, rat; conditions: isolated alkaloids; mean of 3 slices; FIG. 7
Description: Four important alkaloids contained in Zembrin® namely, mesembrenone, mesembrenol, mesembrine and mesembranol, were individually isolated. Similar tests to those described in example A were carried out on each of these isolated alkaloids, in the presence of two concentrations in the nanomolar range and the results are illustrated in FIGS. 5 to 7. In FIG. 5, the statistical significance of p<0.01 is marked by stars. In FIG. 6, the statistical significance of p<0.01 is marked by stars. In FIG. 7, mean values of 3 slices are depicted for each recording condition. Statistical significance between Fluorowillardine alone and the presence of the alkaloids is documented by stars. (**=p<0.05; ***=p<0.01).

Row | Compound | attenuation of population spike amplitude, single shock stimuli [1] | attenuation of population spike amplitude, theta burst stimuli [1] | interaction with AMPA mediated transmission (population spike with Fluorowillardine alone or with alkaloid) [2] | concentration exerting a similar extent of attenuation of population spike amplitude ([1]; FIGS. 5 and 6)
1 | COc1ccc(C23CCC(O)CC2N(C)CC3)cc1OC (stereo not shown) [mesembranol] | stronger attenuation | stronger attenuation | interact with AMPA mediated transmission | –
2 | COc1ccc(C23C=CC(O)CC2N(C)CC3)cc1OC (stereo not shown) [mesembrenol] | stronger attenuation | stronger attenuation | interact with AMPA mediated transmission | –
3 | COc1ccc([C@@]23CCC(=O)C[C@@H]2N(C)CC3)cc1OC [mesembrine, reference compound] | – | – | – | 8.65 nM
